Among the data in US10858342B2, “Bicyclic imidazole derivatives useful for the treatment of renal diseases, cardiovascular diseases and fibrotic diseases” (Boehringer Ingelheim International GmbH, priority 2016, dated 2020) are IC50 and Selectivity values, retold here.

Like-named read-outs stand apart in the source and are kept apart here.

Common to all, as to type: biochemical, cynomolgus monkey
In test [1] the target is aldosterone synthase (CYP11B2) (Macaca fascicularis, UniProt A0A2K5UPL9). Put plainly: Inhibition of aldosterone synthase (cynomolgus adrenal mitochondria, aldosterone by mass spectrometry). The protocol:
(§1) The aldosterone synthase and cortisol synthase inhibition assays employ cynomolgus adrenal gland mitochondria as the source of aldosterone synthase (CYP11B2) and cortisol synthase (CYP11B1). […] One unit of CYP11B2 and CYP11B1 activity in these preparations is defined as the amount of enzyme that generates 1 pmol of product in one hour under the conditions described.
(§2) The compounds of the invention may be evaluated for aldosterone synthase inhibition by the following assay:
(§3) Assays are performed in 96-well format in a final volume of 60 microL/well, containing 100 mM potassium phosphate, pH 7.4, 1% (v/v) DMSO, and additionally, 2 μM of corticosterone and 50 units of CYP11B2 activity. Reactions are started by the addition of NADPH to 1 mM and allowed to proceed for 90 minutes at 37° C. Reactions are terminated by the addition of 60 μL of MeCN containing an internal standard for mass spectrometry. One hundred microliters are then transferred to a glass filter plate and centrifuged at 570×g for 5 minutes and the filtrate is collected. Reaction product aldosterone is quantified by mass spectrometry. To determine the assay blank value (0% activity), NADPH is omitted from some reactions.
(§4) Dose dependent inhibition is quantified by the inclusion of compound at various concentrations. Maximum activity (100%) is defined by reactions containing NADPH, but without compound.

Test [2] has as its system aldosterone synthase (CYP11B2). The description is as above. To be noted: selectivity for aldosterone synthase inhibition over cortisol synthase (CYP11B1) inhibition, fold. On the procedure:
as §1, §2, §3, §4

The target in test [3] is cortisol synthase (CYP11B1) (Macaca fascicularis, UniProt A0A2K5ULY1). Description: Inhibition of cortisol synthesis (cynomolgus adrenal mitochondria, cortisol by mass spectrometry). The protocol: The aldosterone synthase and cortisol synthase inhibition assays employ cynomolgus adrenal gland mitochondria as the source of aldosterone synthase (CYP11B2) and cortisol synthase (CYP11B1). Mitochondria are prepared from frozen cynomolgus monkey adrenal glands according to Method A described in by J. D. McGarry et al. (Biochem. J., 1983, 214, 21-28), with a final resuspension in the AT buffer described in R. Yamaguchi et al. (Cell Death and Differentiation, 2007, 14, 616-624), frozen as aliquots in liquid nitrogen and stored at −80° C. until use. One unit of CYP11B2 and CYP11B1 activity in these preparations is defined as the amount of enzyme that generates 1 pmol of product in one hour under the conditions described.
as §3
Dose dependent inhibition is quantified by the inclusion of compound at various concentrations. Maximum activity (100%) is defined by reactions containing NADPH, but without compound. Activities at each concentration are expressed as a percentage of the maximum activity (y-axis) and plotted against concentration of compound (x-axis) and the concentration corresponding to 50% activity (IC50) determined using the XLFit curve-fitting program using a 4-parameter logistic model.
Assays are performed as for aldosterone synthase except for the use of 150 units of CYP11B1, 11-deoxycortisol as substrate and cortisol measured as product.

The mark [4] stands for this setting: 2 μM corticosterone substrate, 50 units CYP11B2, 90 min, 37° C., read-out: Aldosterone Inhibition IC50.
The mark [5] stands for this setting: 11-deoxycortisol substrate, 150 units CYP11B1; read-out: Cortisol Inhibition IC50.
The mark [6] stands for this setting: read-out: Cortisol Inhibition IC50; 11-deoxycortisol substrate, 150 units CYP11B1.

Sequence of aldosterone synthase (CYP11B2) (Macaca fascicularis, UniProt A0A2K5UPL9) (A0A2K5UPL9 1-503): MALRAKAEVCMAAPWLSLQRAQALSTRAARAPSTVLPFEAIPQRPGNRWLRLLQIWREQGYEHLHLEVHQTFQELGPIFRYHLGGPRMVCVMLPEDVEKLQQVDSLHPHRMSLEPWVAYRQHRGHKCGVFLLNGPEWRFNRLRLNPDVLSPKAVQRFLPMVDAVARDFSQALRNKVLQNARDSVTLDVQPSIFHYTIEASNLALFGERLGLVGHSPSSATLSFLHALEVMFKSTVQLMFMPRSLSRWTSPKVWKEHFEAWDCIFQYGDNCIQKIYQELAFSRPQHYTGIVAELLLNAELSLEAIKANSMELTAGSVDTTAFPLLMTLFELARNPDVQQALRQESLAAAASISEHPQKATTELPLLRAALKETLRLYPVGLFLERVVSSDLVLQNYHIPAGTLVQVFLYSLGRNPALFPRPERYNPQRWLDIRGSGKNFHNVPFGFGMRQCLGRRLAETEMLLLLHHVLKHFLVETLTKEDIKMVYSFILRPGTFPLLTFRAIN

“3-(4-Chloroophenyl)-6,6-spirocyclopropyl-3,5,6,7-tetrahydro-benzimidazolo-4-one [C-ACF]”: the IC50 was 10 nM in test [1] (setting [4]) and 590 nM in test [3] (setting [5]). The compound further returned a Selectivity in test [2] of 57.

On to “3-(4-Cyanophenyl)-6,6-(3-tetrahydrofuran)-3,5,6,7-benzimidiazolo-4-one [C-ABA-B]”, for which the figures for the IC50 in test [1] (setting [4]) and in test [3] (setting [5]) were 16 nM and 850 nM, respectively. Moreover, the Selectivity in test [2] turned out to be 53.

Regarding `CCO[C@H]1C[C@H](n2cnc3c2C(=O)CC(C)(C)C3)C12CCC2` (relative stereo) [C-ADM, 3-((1S,3S)-3-Ethoxy-spiro[3.3]hept-1-yl)-6,6-dimethyl-3,5,6,7-tetrahydro-benzoimidazol-4-one], the IC50 in test [1] (setting [4]) is 72 nM; in test [3] (setting [5]), over 30000 nM. The same compound showed a Selectivity in test [2] of 420.

Regarding `C[C@@H]1Cc2cc(-n3cnc4c3C(=O)CCC4)ccc2O1` (stereo in doubt) [C-AAZ-A, 3-(2-Methyl-2,3-dihydro-benzofuran-5-yl)-3,5,6,7-tetrahydro-benzoimidazol-4-one], the IC50 in test [1] (setting [4]) was 300 nM; in test [3] (setting [5]), over 30000 nM. The same compound registered a Selectivity in test [2] of 100.

As to `C[C@H]1Cc2cc(-n3cnc4c3C(=O)CCC4)ccc2O1` (stereo in doubt) [C-AAZ-B, 3-(2-Methyl-2,3-dihydro-benzofuran-5-yl)-3,5,6,7-tetrahydro-benzoimidazol-4-one], the IC50 was 70 nM in test [1] (setting [4]) and over 30000 nM in test [3] (setting [5]). Besides, the Selectivity in test [2] is 430.

As for `CC(=O)N1CCc2cc(-n3cnc4c3C(=O)CCC4)ccc21` [C-AAA, 3-(1-Acetyl-2,3-dihydro-1H-indol-5-yl)-3,5,6,7-tetrahydro-benzoimidazol-4-one], the IC50 was 510 nM in test [1] (setting [4]) and over 30000 nM in test [3] (setting [5]). In test [2], this compound gave a Selectivity of 59.

For `O=C1CCCc2ncn(-c3ccc4c(c3)COC4)c21` [C-AAB, 3-(1,3-Dihydro-isobenzofuran-5-yl)-3,5,6,7-tetrahydro-benzoimidazol-4-one], the results for the IC50 in test [1] (setting [4]) and in test [3] (setting [5]) were 85 nM and 23000 nM, respectively. Moreover, in test [2], the Selectivity is listed as 270.

In the case of `CN1Cc2cc(-n3cnc4c3C(=O)CCC4)ccc2CC1=O` [C-AAC, 2-Methyl-7-(7-oxo-4,5,6,7-tetrahydro-benzoimidazol-1-yl)-1,4-dihydro-2H-isoquinolin-3-one], the IC50 in test [1] (setting [4]) was 720 nM; in test [3] (setting [5]) it was over 30000 nM. The compound further returned a Selectivity in test [2] of 42.

Consider `CN1C(=O)CCc2cc(-n3cnc4c3C(=O)CCC4)cnc21` [C-AAD, 1-Methyl-6-(7-oxo-4,5,6,7-tetrahydro-benzoimidazol-1-yl)-3,4-dihydro-1H-[1,8]naphthyridin-2-one], for which the IC50 is 150 nM in test [1] (setting [4]) and over 30000 nM in test [3] (setting [5]). In test [2], this compound displayed a Selectivity of 200.

For the compound `O=C1CCCc2ncn(-c3ccc4c(c3)CCO4)c21` [C-AAE, 3-(2,3-Dihydro-benzofuran-5-yl)-3,5,6,7-tetrahydro-benzoimidazol-4-one], the IC50 in test [1] (setting [4]) came out at 11 nM; in test [3] (setting [5]), 9400 nM. Further, the Selectivity in test [2] amounted to 890.

On to `N#Cc1ccc(-n2cnc3c2C(=O)CC2(CCOCC2)C3)cc1Cl` [C-AAQ, 3-(3-Chloro-4-cyano-phenyl)-6,6-3-o-tetrahydropyran-3,5,6,7-tetrahydro-benzoimidazol-4-one], for which the IC50 stood at 44 nM in test [1] (setting [4]) and 2900 nM in test [3] (setting [6]).

In the case of `CCOC(=O)C1CC(=O)c2c(ncn2-c2ccc(C#N)c(Cl)c2)C1` (stereo not drawn) [C-AAY, 1-(3-Chloro-4-cyano-phenyl)-7-oxo-4,5,6,7-tetrahydro-1H-benzoimidazole-5-carboxylic acid ethyl ester], the IC50 in test [1] (setting [4]) was 7.3 nM; in test [3] (setting [6]) it was 5100 nM.

In the case of `CC(C)Oc1ccc(-n2cnc3c2C(=O)CC(C)(C)C3)cc1` [C-ABQ, 3-(4-Isoporopoxy-phenyl)-6,6-dimethyl-3,5,6,7-tetrahydro-benzoimidazol-4-one], the figures for the IC50 in test [1] (setting [4]) and in test [3] (setting [5]) were 280 nM and over 100000 nM, respectively.

As for `CC1(C)CC(=O)c2c(ncn2-c2cccc(C#N)c2)C1` [C-ABS, 3-(5,5-Dimethyl-7-oxo-4,5,6,7-tetrahydro-benzoimidazol-1-yl)-benzonitrile], the values for the IC50 in test [1] (setting [4]) and in test [3] (setting [5]) were 250 nM and 10000 nM, respectively.

As for `Cc1ccc(-n2cnc3c2C(=O)CC(C)(C)C3)cc1C#N` [C-ABY, 5-(5,5-Dimethyl-7-oxo-4,5,6,7-tetrahydro-benzoimidazol-1-yl)-2-methyl-benzonitrile], the IC50 turned out to be 130 nM in test [1] (setting [4]) and 7300 nM in test [3] (setting [5]).

Turning to `O=C1CCCc2ncn(-c3ccc(Cl)c(Cl)c3)c21` [C-ACC, 3-(3,4-Dichloro-phenyl)-3,5,6,7-tetrahydro-benzoimidazol-4-one], the IC50 in test [1] (setting [4]) was 5.5 nM; in test [3] (setting [5]), 1000 nM.

Turning to `N#C[C@H]1CC[C@H](n2cnc3c2C(=O)CCC3)CC1` [C-ACJ, trans-4-(7-Oxo-5,6-dihydro-4H-benzimidazol-1-yl)cyclohexanecarbonitrile], the IC50 was found to be 30 nM in test [1] (setting [4]) and 13000 nM in test [3] (setting [5]).

With `CC1(C)CC(=O)c2c(ncn2C2CCCCC2)C1` [C-ACK, 3-Cyclohexyl-6,6-dimethyl-3,5,6,7etrahydro-benzoimidazol-4-one], the IC50 was found to be 260 nM in test [1] (setting [4]) and 6100 nM in test [3] (setting [5]).

Regarding `CC1(C)CC(=O)c2c(ncn2C2CCc3cc(Br)ccc3C2)C1` (stereo not drawn) [C-ACM, 3-(6-Bromo-1,2,3,4-tetrahydro-naphthalen-2-yl)-6,6-dimethyl-3,5,6,7-tetrahydro-benzoimidazol-4-on], the IC50 in test [1] (setting [4]) was 53 nM; in test [3] (setting [5]), over 30000 nM.

Consider `CC1(C)CC(=O)c2c(ncn2C2CCC3CCCCC3C2)C1` (stereo not drawn) [C-ACO, 3-(Decahydro-naphthalen-2-yl)-6,6-dimethyl-3,5,6,7-tetrahydro-benzoimdazol-4-one], for which the IC50 in test [1] (setting [4]) turned out to be 420 nM; in test [3] (setting [5]), 14000 nM.

For `CC1(C)CC(=O)c2c(ncn2C2CCCc3ccccc32)C1` (stereo not drawn) [C-ACS, 6,6-Dimethyl-3-(1,2,3,4-tetrahydronaphthalen-1-yl)-3,5,6,7-tetrahydro-benzoimidazol-4-one], the IC50 turned out to be 93 nM in test [1] (setting [4]) and 26000 nM in test [3] (setting [6]).

As to `CC(=O)Nc1ccc(Cn2cnc3c2C(=O)CC(C)(C)C3)cc1` [C-ADE, N-[4-(5,5-Dimethyl-7-oxo-4,5,6,7-tetrahydro-benzoimidazol-1-ylmethyl)-phenyl]-acetamide], the IC50 was determined as 58 nM in test [1] (setting [4]) and 1900 nM in test [3] (setting [5]).

As for `CC1(C)CC(=O)c2c(ncn2C2Cc3ccccc3C2)C1` [C-ADG], the IC50 in test [1] (setting [4]) is 47 nM; in test [3] (setting [5]), 61000 nM.

For the compound `CC1(C)CC(=O)c2c(ncn2[C@H]2CC[C@@H](C#N)CC2)C1` [C-ADL, 4-(5,5-Dimethyl-7-oxo-4,5,6,7-tetrahydro-benzoimidazol-1-yl)-cyclohexanecarbonitrile], the results for the 50% inhibitory concentration (IC50) in test [1] (setting [4]) and in test [3] (setting [5]) were 22 nM and 7900 nM, respectively.

Regarding `CC1(C)CC(=O)c2c(ncn2Cc2ccc(C(=O)N3CC[C@@H](O)C3)cc2)C1` [C-ADT, 3-[4-((R)-3-Hydroxy-pyrrolidine-1-carbonyl)-benzyl]-6,6-dimethyl-3,5,6,7-tetrahydro-benzoimidazol-4-one], the 50% inhibitory concentration (IC50) in test [1] (setting [4]) came out at 290 nM; in test [3] (setting [5]), 29000 nM.

On to `N#Cc1ccc(-n2cnc3c2C(=O)CCC3)nc1` [C-ADW, 6-(7-Oxo-4,5,6,7-tetrahydro-benzoimidazol-1-yl)-nicotinonitrile], for which the IC50 in test [1] stood at 290 nM; in test [3] (setting [5]), 25000 nM.

For the compound `N#Cc1ccc(-n2cnc3c2C(=O)CC(CO)C3)cc1Cl` (stereo not drawn) [C-AED, 2-Chloro-4-(5-hydroxymethyl-7-oxo-4,5,6,7-tetrahydro-benzoimidazol-1-yl)-benzonitrile], the IC50 in test [1] (setting [4]) was 18 nM; in test [3] (setting [6]), 8600 nM.

As for `CN(C)C(=O)[C@H]1CC(=O)c2c(ncn2-c2ccc(C#N)c(Cl)c2)C1` [C-AEE, (R)-1-(3-Chloro-4-cyano-phenyl)-7-oxo-4,5,6,7-tetrahydro-1H-benzoimidazole-5-carboxylic acid dimethylamide], the IC50 in test [1] (setting [4]) is 190 nM; in test [3] (setting [6]) it was over 30000 nM.

The term IC50 denotes the concentration that inhibits the measured activity by half.
